{"source": "paper PMC10455244", "about": "“Alpha-Mangostin: A Potent Inhibitor of TRPV3 and Pro-Inflammatory Cytokine Secretion in Keratinocytes” (International Journal of Molecular Sciences, 2023)", "target": "T1, TRPV3 (G573S) (Homo sapiens, UniProt Q8NET8, G573S)", "T1 construct": "host or cells: HEK 293T (transient transfection, pEGFP-N1 co-transfected as a marker)", "T1 sequence (Q8NET8 1-790 G573S)": "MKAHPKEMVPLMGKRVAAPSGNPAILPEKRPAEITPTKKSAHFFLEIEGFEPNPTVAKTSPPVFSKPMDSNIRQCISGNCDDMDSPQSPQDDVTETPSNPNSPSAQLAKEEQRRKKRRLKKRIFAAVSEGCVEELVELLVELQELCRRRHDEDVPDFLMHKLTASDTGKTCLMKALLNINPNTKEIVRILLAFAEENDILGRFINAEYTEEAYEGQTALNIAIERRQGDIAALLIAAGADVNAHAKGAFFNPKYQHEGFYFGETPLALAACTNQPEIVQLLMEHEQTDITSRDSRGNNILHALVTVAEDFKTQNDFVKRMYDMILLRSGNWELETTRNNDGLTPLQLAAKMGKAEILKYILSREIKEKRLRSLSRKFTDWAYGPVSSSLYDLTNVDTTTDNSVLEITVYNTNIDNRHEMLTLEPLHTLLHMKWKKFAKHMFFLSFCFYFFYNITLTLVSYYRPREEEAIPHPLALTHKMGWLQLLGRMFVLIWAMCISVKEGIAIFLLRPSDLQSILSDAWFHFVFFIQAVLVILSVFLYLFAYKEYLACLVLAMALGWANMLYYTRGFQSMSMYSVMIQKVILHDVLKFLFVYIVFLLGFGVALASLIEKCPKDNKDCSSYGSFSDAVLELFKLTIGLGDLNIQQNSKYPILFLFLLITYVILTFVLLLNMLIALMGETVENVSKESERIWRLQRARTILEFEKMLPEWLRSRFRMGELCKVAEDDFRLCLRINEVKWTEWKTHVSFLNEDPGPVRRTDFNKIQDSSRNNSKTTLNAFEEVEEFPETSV", "experiment": "Whole-cell patch-clamp, spontaneous current of TRPV3 G573S mutant in HEK 293T cells", "format": "cell-based", "conditions": "−100 mV, read-out: IC50, inhibition of spontaneous current of TRPV3 G573S mutant", "procedure": "For electrophysiology recording and calcium measurement, 10 µM 74a (a TRPV3 inhibitor) was added about 6 h after transfection to inhibit channel activities and prevent cell death. First, the electrophysiology activities of the mutations were recorded using a whole-cell patch-clamp. Our data presented spontaneous TRPV3 currents when −100 mV to 100 mV ramp pulses were applied, which dramatically declined with the addition of 1 µM alpha-mangostin (Figure 4A).\nFigure 4 Alpha-mangostin inhibited the activity of hyperactive TRPV3 mutant channels and rescued mutation-induced cell death. (A) Alpha-mangostin inhibited the channel current in representative TRPV3 (G573S)- and TRPV3 (G573C)-expressing HEK 293T cells. […] Currents were normalized to the response at −100 mV before adding alpha-mangostin. (C) Alpha-mangostin inhibited TRPV3-mediated intracellular calcium increase in TRPV3 (G573S)-expressing HEK 293T cells. […] The bar graph on the right summarizes the change in the intracellular calcium rise inhibited by alpha-mangostin. […]\nIn the whole-cell configuration, voltage ramps from −100 to +100 mV over 1 s were applied every 20 s and the holding potential was set at 0 mV. Sampling at 10 kHz and low-pass filtering at 5 kHz (w-c) were applied for all recorded currents. Recorded data were analyzed using Clampfit ver. […]"}
{"smiles": "COc1c(O)cc2oc3cc(O)c(CC=C(C)C)c(O)c3c(=O)c2c1CC=C(C)C", "note": "[Alpha-mangostin]", "values": [{"measurement": "IC50", "value": "2040 ± 640", "unit": "nM"}]}
